# Test results reported in article PMC2800825 (Biochemistry, 2009).
# Where a chain is given by its changes, count along the chain named. Where “and” joins values, the source holds several entries; their conditions need not be identical. Equal entries are not always repeated. Where two headings read alike, the source gives them in different places.
# How the values were obtained:
# [1] = biological target: T1, Thr247Ala mutant E. coli DHOD (Escherichia coli, UniProt P0A7E1, T247A); conditions: protio-DHO vs 5,5,6-^2H3 DHO, pH 8.5, 4 °C
# [2] = biological target: T2, Asn246Ala mutant E. coli DHOD (Escherichia coli, UniProt P0A7E1, N246A); conditions: protio-DHO vs 5,5,6-^2H3 DHO, pH 8.5, 4 °C
# [3] = biological target: T3, Asn111Ala mutant E. coli DHOD (Escherichia coli, UniProt P0A7E1, N111A); conditions: protio-DHO vs 5,5,6-^2H3 DHO, pH 8.5, 4 °C
# [4] = biological target: T4, Asn111Asp mutant E. coli DHOD (Escherichia coli, UniProt P0A7E1, N111D); conditions: protio-DHO vs 5,5,6-^2H3 DHO, pH 8.5, 4 °C
# [5] = biological target: T5, Thr247Ser mutant E. coli DHOD (Escherichia coli, UniProt P0A7E1, T247S); assay: Reductive half-reaction with DHO, anaerobic stopped-flow; format: biochemical
# T5 sequence (P0A7E1 1-336 T247S): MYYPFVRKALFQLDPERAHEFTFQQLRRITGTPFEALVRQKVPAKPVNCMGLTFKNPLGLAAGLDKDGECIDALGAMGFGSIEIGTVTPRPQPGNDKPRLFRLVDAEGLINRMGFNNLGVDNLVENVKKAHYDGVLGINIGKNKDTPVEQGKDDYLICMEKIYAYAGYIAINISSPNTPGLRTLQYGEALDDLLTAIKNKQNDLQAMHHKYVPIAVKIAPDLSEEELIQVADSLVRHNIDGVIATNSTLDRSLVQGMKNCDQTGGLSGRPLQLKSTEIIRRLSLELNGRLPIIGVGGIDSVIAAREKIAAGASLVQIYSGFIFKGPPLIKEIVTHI
# [6] = biological target: T1, Thr247Ala mutant E. coli DHOD; assay: as above; format: biochemical
# [7] = biological target: T6, Asn177Ala mutant E. coli DHOD (Escherichia coli, UniProt P0A7E1, N177A); assay: as above; format: biochemical
# [8] = biological target: T7, Asn172Ala mutant E. coli DHOD (Escherichia coli, UniProt P0A7E1, N172A); assay: as above; format: biochemical
# T7 sequence (P0A7E1 1-336 N172A): T5 sequence (P0A7E1 1-336 T247S) with N172A, S247T
# [9] = biological target: T2, Asn246Ala mutant E. coli DHOD; assay: as above; format: biochemical
# [10] = biological target: T8, Asn172Ala/Asn246Ala mutant E. coli DHOD (Escherichia coli, UniProt P0A7E1, N172A/N246A); format: biochemical; conditions: pH 8.5, footnote b printed, text says examined at 25°
# T8 sequence (P0A7E1 1-336 N172A/N246A): T5 sequence (P0A7E1 1-336 T247S) with N172A, N246A, S247T
# [11] = biological target: T3, Asn111Ala mutant E. coli DHOD; assay: Reductive half-reaction with DHO, anaerobic stopped-flow; format: biochemical
# [12] = biological target: T4, Asn111Asp mutant E. coli DHOD; assay: as above; format: biochemical
# wild-type E. coli DHOD [13] = biological target: T9, wild-type E. coli DHOD (Escherichia coli, UniProt P0A7E1); conditions: cited from earlier work
# T9 sequence (P0A7E1 1-336): T5 sequence (P0A7E1 1-336 T247S) with S247T
# [14] = biological target: T5, Thr247Ser mutant E. coli DHOD; conditions: pH 8.5, 25 °C
# [15] = biological target: T1, Thr247Ala mutant E. coli DHOD; conditions: pH 8.5, 25 °C
# [16] = biological target: T6, Asn177Ala mutant E. coli DHOD; conditions: pH 8.5, 25 °C
# [17] = biological target: T7, Asn172Ala mutant E. coli DHOD; conditions: pH 8.5, 25 °C
# [18] = biological target: T2, Asn246Ala mutant E. coli DHOD; conditions: pH 8.5, 25 °C
# [19] = biological target: T8, Asn172Ala/Asn246Ala mutant E. coli DHOD; conditions: pH 8.5, 25 °C
# [20] = biological target: T3, Asn111Ala mutant E. coli DHOD; conditions: pH 8.5, 25 °C
# [21] = biological target: T4, Asn111Asp mutant E. coli DHOD; conditions: pH 8.5, 25 °C
# wild-type E. coli DHOD [22] = biological target: T9, wild-type E. coli DHOD; assay: biochemical
# [23] = biological target: T5, Thr247Ser mutant E. coli DHOD; assay: biochemical
# [24] = biological target: T1, Thr247Ala mutant E. coli DHOD; assay: biochemical
# [25] = biological target: T6, Asn177Ala mutant E. coli DHOD; assay: biochemical
# [26] = biological target: T7, Asn172Ala mutant E. coli DHOD; assay: biochemical
# [27] = biological target: T2, Asn246Ala mutant E. coli DHOD; assay: biochemical; conditions: Kd of OA, Asn246Ala oxidized enzyme, pH 8.5, 25 °C
# [28] = biological target: T8, Asn172Ala/Asn246Ala mutant E. coli DHOD; assay: biochemical
# [29] = biological target: T3, Asn111Ala mutant E. coli DHOD; assay: biochemical
# [30] = biological target: T4, Asn111Asp mutant E. coli DHOD; assay: biochemical
# T6 sequence (P0A7E1 whole entry N177A): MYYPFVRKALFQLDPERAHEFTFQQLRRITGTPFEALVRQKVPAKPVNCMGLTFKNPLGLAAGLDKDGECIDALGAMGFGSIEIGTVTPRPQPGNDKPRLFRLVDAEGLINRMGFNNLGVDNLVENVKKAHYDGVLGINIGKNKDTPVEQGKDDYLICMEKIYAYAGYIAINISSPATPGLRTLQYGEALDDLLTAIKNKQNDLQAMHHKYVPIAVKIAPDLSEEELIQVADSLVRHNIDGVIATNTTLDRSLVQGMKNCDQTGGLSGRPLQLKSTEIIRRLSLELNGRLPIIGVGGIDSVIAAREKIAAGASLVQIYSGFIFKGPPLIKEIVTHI
# T1 sequence (P0A7E1 whole entry T247A): as the sequence (P0A7E1 whole entry N177A) above, with A177N, T247A counted along it
# T4 sequence (P0A7E1 whole entry N111D): as the sequence (P0A7E1 whole entry N177A) above, with N111D, A177N counted along it
# T3 sequence (P0A7E1 whole entry N111A): as the sequence (P0A7E1 whole entry N177A) above, with N111A, A177N counted along it
# T2 sequence (P0A7E1 whole entry N246A): as the sequence (P0A7E1 whole entry N177A) above, with A177N, N246A counted along it
smiles,measurement,setting,value
"[2H]C1([2H])C(=O)NC(=O)NC1([2H])C(=O)O (stereo not drawn) [5,5,6-^2H3 DHO]",KIE ^D(kred/Kd),[1],6.3 ± 0.4
same,KIE ^D(kred/Kd),[2],6.3 ± 0.4
same,KIE ^D(kred/Kd),[3],5.9 ± 0.3
same,KIE ^D(kred/Kd),[4],5.3 ± 0.2
"O=C1C[C@@H](C(=O)O)NC(=O)N1 [DHO, dihydroorotate]",Kd,[5],45 ± 5 µM
same,kred (reduction rate constant),"[5]; Thr247Ser, pH 8.5, 4 °C",58.8 ± 1.1 s⁻¹
same,"observed rate constant of the final phase, independent of DHO concentration","[5]; Thr247Ser, pH 8.5, 4 °C",~ 0.02 s^−1
same,Kd,[6],198 ± 16 µM
same,fold decrease in reduction rate constant vs wild-type,[6]; Thr247Ala,~ 8 fold
same,fold increase in Kd of DHO vs wild-type,[6]; Thr247Ala,~ 10 fold
same,kred (reduction rate constant),"[6]; Thr247Ala, pH 8.5, 4 °C",5.52 ± 0.09 s⁻¹
same,Kd,[7],22 ± 2 µM
same,fold decrease in reduction rate constant vs wild-type,[7]; Asn177Ala,~ 800 fold
same,kred (reduction rate constant),"[7]; Asn177Ala, pH 8.5, 4 °C",0.0586 ± 0.0004 s⁻¹
same,Kd,[8],278 ± 9 µM
same,fold increase in Kd of DHO vs wild-type,[8]; Asn172Ala,~ 14 fold
same,kred (reduction rate constant),"[8]; Asn172Ala, pH 8.5, 4 °C",0.00437 ± 0.0002 s⁻¹ and 0.00437 ± 0.00002 s⁻¹
same,Kd,[9],47000 µM
same,fold decrease in reduction rate constant vs wild-type,[9]; Asn246Ala,~ 570 fold
same,fold increase in apparent Kd for DHO vs wild-type,[9]; Asn246Ala,"~ 2,000 fold"
same,kred (reduction rate constant),"[9]; Asn246Ala, pH 8.5, 4 °C",0.081 ± 0.002 s⁻¹
same,kred (reduction rate constant),[10],~0.002 ^b s^−1
same,Kd,[11],1040 µM
same,fold decrease in kred vs wild-type,[11]; Asn111Ala,~ 4600 fold
same,fold increase in Kd of DHO vs wild-type,[11]; Asn111Ala,~ 50 fold
same,kred (reduction rate constant),"[11]; Asn111Ala, pH 8.5, 4 °C",0.0100 ± 0.0001 s⁻¹
same,fold slower reduction rate constant than wild-type,[12],~ 450 fold
same,kred (reduction rate constant),"[12]; pH 8.5, 4 °C, estimated",~0.1 s⁻¹
same,kred (reduction rate constant),"wild-type E. coli DHOD [13]; pH 8.5, 4 °C",46 s⁻¹
same,Kd,"wild-type E. coli DHOD [13]; read-out: Apparent Kd,DHO, pH 8.5, 4 °C",20 µM
"O=C(O)c1cc(=O)[nH]c(=O)[nH]1 [OA, orotate]",Kd(mutant)/Kd(Wild-Type) for OA,[14],1.1
same,Kd(mutant)/Kd(Wild-Type) for OA,[15],12
same,Kd(mutant)/Kd(Wild-Type) for OA,[16],8
same,Kd(mutant)/Kd(Wild-Type) for OA,[17],65
same,Kd(mutant)/Kd(Wild-Type) for OA,[18],150 and 152
same,Kd(mutant)/Kd(Wild-Type) for OA,[19],~ 14700
same,Kd(mutant)/Kd(Wild-Type) for OA,[20],14
same,Kd(mutant)/Kd(Wild-Type) for OA,[21],≫ 22000
same,Kd,wild-type E. coli DHOD [22],3.4 ± 0.8 µM
same,Kd,[23],3.8 ± 0.5 µM
same,Kd,[24],39.3 ± 1.6 µM
same,Kd,[25],27.5 ± 1.5 µM
same,Kd,[26],220 ± 9 µM
same,Kd,[27],520 µM and 518 µM
same,Kd,[28],~50000 µM
same,Kd,[29],47.2 ± 0.2 µM
same,Kd,[30],> 75000 µM
NC(CO)(CO)CO.O=C(O)c1cc(=O)[nH]c(=O)[nH]1 [OA-Tris salt],solubility in water,,at least 400 mM
